Like-named read-outs stand apart in the source and are kept apart here.
Key:
[1] = test system: Dengue 2, New Guinea strain (NGC); assay: DENV-2 moDC EC50 (qPCR of viral RNA in infected moDCs); type: cell-based, New Guinea strain (NGC); human moDCs; conditions: human moDCs infected with Dengue 2 NGC, MOI=0.1, 48 hours
Method in brief: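 moDCs differentiated 7 days from CD14+ monocytes with GM-CSF/IL-4, infected with Vero-derived DENV-2 NGC at MOI 0.1 for 2 h at 37 °C, then plated in triplicate with graded compound doses (0.25% DMSO). At 48 h viral RNA quantified by duplex TaqMan qPCR against GAPDH; EC50 normalized to positive and no-compound controls.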

[2] = moDC CC50 (CellTiter Glo viability); type: cell-based, Human; conditions: human, uninfected moDCs
[3] = test system: Dengue serotype 2 New Guinea C (NGC) strain; assay: DENV-2 Huh-7 EC50 (qPCR of viral RNA in infected Huh7 cells); type: cell-based; conditions: MOI=0.1, 48 hours
Method in brief: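 Huh7 cells were infected 2 h at 37 °C with DENV-2 NGC at MOI 0.1, then plated with graded compound doses (0.25% DMSO) in triplicate for 48 h. Viral RNA was quantified by duplex TaqMan qPCR against GAPDH. EC50 was normalized to positive and no-compound controls.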

[4] = Huh-7 CC50 (CellTiter Glo viability); type: cell-based, Human; conditions: human, Huh7 hepatocarcinoma cells
Method in brief: (§1)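 Huh7 cells in 10% FCS DMEM plated at 1-2×10^4 per well in triplicate with graded compound doses, 0.25% DMSO throughout. Viability after 48 hours by CellTiter Glo luminescence, normalized to no-compound and no-cell controls; CC50 from curve fitting.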

[5] = test system: RSV strain A2; assay: RSV HEp-2 EC50 (infectious cytopathic cell protection assay); type: cell-based, RSV strain A2; HEp-2 cells; conditions: read-out: RSV Hep-2 EC50
Method in brief: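 HEp-2 cells (50,000/mL) infected with titered RSV stock, added onto compound in 3-fold serial dilutions; 4 days at 37 °C. Cell viability read by CellTiter-Glo luminescence; percent inhibition of virus-induced cytopathic effect derived from remaining viability against 0% and 100% inhibition controls.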

[6] = HEp-2 CC50 (cytotoxicity in uninfected HEp-2 cells); type: cell-based; conditions: human, CellTiter Glo
Method: (§2) Instead, an uninfected cell mixture at the same density is added at 20 uL/well to plates containing prediluted compounds, also at 100 nL/sample. Assay plates are then incubated for 4 days followed by a cell viability test using the same CellTiter Glo reagent addition and measurement of luminescent readouts. Untreated cell and cells treated at 2 μM puromycin (Sigma, St. Louis, MO) serve as 100% and 0% cell viability control, respectively.

[7] = test system: RSV A2; assay: RSV NHBE EC50 (RSV A2 antiviral assay in NHBE cells); type: cell-based, RSV A2; normal human bronchial epithelial (NHBE) cells; conditions: human respiratory syncytial virus, 96 h; NHBE cells infected with RSV A2, 4 days, Cell-Titer Glo
Method: Example 88. RSV NHBE EC50
Normal human bronchial epithelial (NHBE) cells were purchased from Lonza (Walkersville, MD, Cat #CC-2540) and cultured in Bronchial Epithelial Growth Media (BEGM) (Lonza, Walkersville, MID, Cat 9 CC-3170). The cells were passaged 1-2 times per week to maintain<80% confluency. The NHBE cells were discarded after 6 passages in culture.
To conduct the RSV A2 antiviral assay, NHBE cells were plated in 96-well plates at a density of 7,500 cells per well in BEGM and allowed to attach overnight at 37° C. Following attachment, 100 μL of cell culture media was removed and 3-fold serially diluted compound was added using a Hewlett-Packard D300 Digital Dispenser. The final concentration of DMSO was normalized to 0.05%. Following compound addition, the NHBE cells were infected by the addition of 100 μL of RSV A2 at a titer of […] tissue culture infectious doses/mL in BEGM and then incubated at 37° C. for 4 days. The NHBE cells were then allowed to equilibrate to 25° C. and cell viability was determined by removing 100 μL of culture medium and adding 100 μL of Cell-Titer Glo viability reagent. The mixtures were incubated for 10 minutes at 25° C., and the luminescence signal was quantified on an Envision luminescence plate reader.

[8] = test system: Human monocyte-derived dendritic cells (moDCs); assay: moDC CC50 (CellTiter Glo viability); type: cell-based; conditions: uninfected moDCs, 48 hours
[9] = test system: Human hepatocarcinoma 7 (Huh7) cells; assay: Huh-7 CC50 (CellTiter Glo viability); type: cell-based; conditions: 48 hours
Method in brief: as §1

[10] = test system: uninfected HEp-2 cells; assay: HEp-2 CC50 (cytotoxicity in uninfected HEp-2 cells); type: cell-based; conditions: 4 days, CellTiter Glo
Method: as §2

[11] = target: T1, DENV2 NS5 (Dengue virus type 2, UniProt P14340); assay: DENV Pol IC50 (DENV2-NS5 polymerase assay); type: biochemical; conditions: 100 nM DENV2 NS5, sshRNA template, 90 minutes at 30° C.
T1 construct: His tag (pET28b, thrombin-cleavable) (N); made in house; host or cells: E. coli BL21 (DE3)
Method: A 244 nucleotide secondary structureless heteropolymeric RNA (sshRNA) with sequence 5′-(UCAG)20(UCCAAG)14(UCAG)20-3′ (SEQ ID NO: 1) is used as the template with 5′-CUG-3′ primer in the DENV2-NS5 polymerase assay. Six two-fold dilutions of compounds starting from 200 nM and no inhibitor control are plated in 96-well plates. 100 nM DENV2 NS5 is preincubated for 5 minutes at room temperature in a reaction mixture containing 40 mM Tris-HCl (pH 7.5), 10 mM NaCl, 3 mM DTT, 0.2 unit/μL RNasin Plus RNase Inhibitor, 200 ng/μL sshRNA, 20 μM CUG and 2 mM MgCl2. Enzyme mix is added to compound dilutions and reactions initiated by the addition of a mixture containing 20 μM of three natural NTP plus 2 μM of analog:base matched competing natural NTP containing 1:100 α-33P-NTP. After 90 minutes at 30° C., 5 μL of the reaction mixtures are spotted on DE81 anion exchange paper. Filter papers are washed three times with Na2HPO4 (125 mM, pH 9) for 5 minutes, rinsed with water and ethanol, then air-dried and exposed to phosphorimager. Synthesized RNA is quantified using Typhoon Trio Imager and Image Quant TL Software and reaction rates are calculated by linear regression using GraphPad Prism 5.0. IC50 values are calculated in Prism by non-linear regression analysis using the dose-response (variable slope) equation (four-parameter logistic equation): Y=Bottom+(Top-Bottom)/(1+10^((Log IC50−X)*HillSlope)).

[12] = Dengue virus, DENV2, Huh-7, Huh7 cells infected with Dengue serotype 2 NGC
[13] = human respiratory syncytial virus, HEp-2, 96 h
[14] = Huh7 cells infected with Dengue serotype 2 NGC
[15] = HEp-2 cells infected with RSV A2, 4 days, Cell TiterGlo

## COC(=O)[C@H](C)NP(=O)(OC[C@@]1(CF)O[C@@H](c2ccc3c(N)ncnn23)[C@H](OC(=O)C(C)C)[C@@H]1OC(=O)C(C)C)Oc1ccccc1 (single isomer, unassigned) [Example 11]
[1]; Dengue virus
  EC50: 0.38 µM
[2]
  CC50 at 48 h: 16.1 µM
[3]; [12]
  EC50: 0.586 µM
[4]
  CC50 at 48 h: > 18.8 µM
[5]; [13]
  EC50: 2.04 µM
[6]
  CC50 at 4 days: 12.6 µM
[7]
  EC50: 0.367 µM

## C[C@H](NP(=O)(OC[C@@]1(CF)O[C@@H](c2ccc3c(N)ncnn23)[C@H](O)[C@@H]1O)Oc1ccccc1)C(=O)OCC(C)(C)C(F)(F)F (single isomer, unassigned) [Example 54]
[1]
  EC50: 0.241 µM
[8]
  CC50: 3.25 µM
[3]; [14]
  EC50: 0.409 µM
[9]
  CC50: > 25 µM
[5]; [15]
  EC50: 0.18 µM
[10]
  CC50: > 100 µM

## C[C@H](NP(=O)(OC[C@@]1(CF)O[C@@H](c2ccc3c(N)ncnn23)[C@H](O)[C@@H]1O)Oc1ccccc1)C(=O)OCC(C)(C)C(F)(F)F (single isomer, unassigned) [Example 55]
[1]
  EC50: 0.103 µM
[8]
  CC50: 4.19 µM
[3]; [14]
  EC50: 0.611 µM
[9]
  CC50: > 25 µM
[5]; [15]
  EC50: 0.15 µM
[10]
  CC50: > 100 µM

## Nc1ncnn2c([C@@H]3O[C@](CCl)(COP(=O)(O)OP(=O)(O)OP(=O)(O)O)[C@@H](O)[C@H]3O)ccc12 [Comp. Ex. 2, ((2R,3S,4R,5S)-5-(4-aminopyrrolo[2,1-f][1,2,4]triazin-7-yl)-2-(chloromethyl)-3,4-dihydroxytetrahydrofuran-2-yl)methyl tetrahydrogen triphosphate, reference compound]
[11]
  IC50: 7.09 µM

## CCC(CC)COC(=O)[C@H](C)N[P@](=O)(OC[C@@]1(CF)O[C@@H](c2ccc3c(N)ncnn23)[C@H](O)[C@@H]1O)Oc1ccccc1 [Example 1, 2-ethylbutyl ((S)-(((2R,3S,4R,5S)-5-(4-aminopyrrolo[2,1-f][1,2,4]triazin-7-yl)-2-(fluoromethyl)-3,4-dihydroxytetrahydrofuran-2-yl)methoxy)(phenoxy)phosphoryl)-L-alaninate]
[1]; Dengue virus
  EC50: 0.117 µM
[2]
  CC50 at 48 h: > 5.89 µM
[3]; [12]
  EC50: 0.151 µM
[4]
  CC50 at 48 h: 18 µM
[5]; [13]
  EC50: 0.119 µM
[6]
  CC50 at 4 days: > 50 µM
[7]
  EC50: 0.595 µM

## COC(=O)[C@H](C)NP(=O)(OC[C@@]1(CF)O[C@@H](c2ccc3c(N)ncnn23)[C@H](O)[C@@H]1O)Oc1ccccc1 (stereo partly drawn) [Example 10, methyl ((((2R,3S,4R,5S)-5-(4-aminopyrrolo[2,1-f][1,2,4]triazin-7-yl)-2-(fluoromethyl)-3,4-dihydroxytetrahydrofuran-2-yl)methoxy)(phenoxy)phosphoryl)-L-alaninate]
[1]; Dengue virus
  EC50: 0.679 µM
[2]
  CC50 at 48 h: > 19.5 µM
[3]; [12]
  EC50: 0.843 µM
[4]
  CC50 at 48 h: > 25 µM
[5]; [13]
  EC50: 0.909 µM
[6]
  CC50 at 4 days: > 50 µM
[7]
  EC50: 2.11 µM

## CC(=O)O[C@H]1[C@H](c2ccc3c(N)ncnn23)O[C@](CF)(COP(=O)(N[C@@H](C)C(=O)OC2CCCCC2)Oc2ccccc2)[C@H]1OC(C)=O (stereo partly drawn) [Example 15, (2R,3S,4S,5S)-5-(4-aminopyrrolo[2,1-f][1,2,4]triazin-7-yl)-2-((((((S)-1-(cyclohexyloxy)-1-oxopropan-2-yl)amino)(Phenoxy)phosphoryl)oxy)methyl)-2-(fluoromethyl)tetrahydrofuran-3,4-diyl diacetate]
[3]; [14]
  EC50: 1.63 µM
[9]
  CC50: > 25 µM
[5]; [15]
  EC50: 1.46 µM
[10]
  CC50: > 50 µM

## CCC(=O)O[C@H]1[C@H](c2ccc3c(N)ncnn23)O[C@](CF)(COP(=O)(N[C@@H](C)C(=O)OC2CCCCC2)Oc2ccccc2)[C@H]1OC(=O)CC (stereo partly drawn) [Example 16, (2R,3S,4S,5S)-5-(4-aminopyrrolo[2,1-f][1,2,4]triazin-7-yl)-2-((((((S)-1-(cyclohexyloxy)-1-oxopropan-2-yl)amino)(Phenoxy)phosphoryl)oxy)methyl)-2-(fluoromethyl)tetrahydrofuran-3,4-diyl dipropionate]
[1]
  EC50: 0.214 µM
[8]
  CC50: 3.8 µM
[3]; [14]
  EC50: 0.736 µM
[9]
  CC50: 13.4 µM
[5]; [15]
  EC50: 1.1 µM
[10]
  CC50: 33 µM

## CCOC(=O)[C@H](C)NP(=O)(OC[C@@]1(CF)O[C@@H](c2ccc3c(N)ncnn23)[C@H](OC(C)=O)[C@@H]1OC(C)=O)Oc1ccccc1 (stereo partly drawn) [Example 21, (2R,3S,4S,5S)-5-(4-aminopyrrolo[2,1-f][1,2,4]triazin-7-yl)-2-((((((S)-1-ethoxy-1-oxopropan-2-yl)amino)(phenoxy)phosphoryl)oxy)methyl)-2-(fluoromethyl)tetrahydrofuran-3,4-diyl diacetate]
[1]
  EC50: 1.04 µM
[8]
  CC50: > 17.3 µM
[3]; [14]
  EC50: 3.06 µM
[9]
  CC50: > 25 µM
[5]; [15]
  EC50: 1.78 µM
[10]
  CC50: > 100 µM

## CCOC(=O)[C@H](C)NP(=O)(OC[C@@]1(CF)O[C@@H](c2ccc3c(N)ncnn23)[C@H](OC(=O)C(C)C)[C@@H]1OC(=O)C(C)C)Oc1ccccc1 (stereo partly drawn) [Example 24, (2R,3S,4S,5S)-5-(4-aminopyrrolo[2,1-f][1,2,4]triazin-7-yl)-2-((((((S)-1-ethoxy-1-oxopropan-2-yl)amino)(phenoxy)phosphoryl)oxy)methyl)-2-(fluoromethyl) tetrahydrofuran-3,4-diyl bis(2-methylpropanoate)]
[1]
  EC50: 0.257 µM
[8]
  CC50: 18.6 µM
[3]; [14]
  EC50: 1.56 µM
[9]
  CC50: 16 µM
[5]; [15]
  EC50: 1.83 µM
[10]
  CC50: 16.6 µM

## CCOC(=O)[C@H](C)NP(=O)(OC[C@@]1(CF)O[C@@H](c2ccc3c(N)ncnn23)[C@H](OC(=O)CC)[C@@H]1OC(=O)CC)Oc1ccccc1 (stereo partly drawn) [Example 25, (2R,3S,4S,5S)-5-(4-aminopyrrolo[2,1-f][1,2,4]triazin-7-yl)-2-((((((S)-1-ethoxy-1-oxopropan-2-yl)amino)(Phenoxy)phosphoryl)oxy)methyl)-2-(fluoromethyl) tetrahydrofuran-3,4-diyl dipropionate]
[1]
  EC50: 0.213 µM
[3]; [14]
  EC50: 0.291 µM
[9]
  CC50: > 25 µM
[5]; [15]
  EC50: 0.919 µM
[10]
  CC50: 70 µM

## CCC(=O)O[C@H]1[C@H](c2ccc3c(N)ncnn23)O[C@](CF)(COP(=O)(N[C@@H](C)C(=O)OC)Oc2ccccc2)[C@H]1OC(=O)CC (stereo partly drawn) [Example 33, (2R,3S,4S,5S)-5-(4-aminopyrrolo[2,1-f][1,2,4]triazin-7-yl)-2-(fluoromethyl)-2-((((((S)-1-methoxy-1-oxopropan-2-yl)amino)(phenoxy)phosphoryl)oxy)methyl)tetrahydrofuran-3,4-diyl dipropionate]
[3]; [14]
  EC50: 0.811 µM
[9]
  CC50: > 25 µM
[5]; [15]
  EC50: 1.22 µM
[10]
  CC50: 43.3 µM

## Nc1ncnn2c([C@@H]3O[C@@](CO)(CF)[C@@H](O)[C@H]3O)ccc12 [Intermediate 5, (2R,3S,4R,5S)-5-(4-aminopyrrolo[2,1-f][1,2,4]triazin-7-yl)-2-(fluoromethyl)-2-(hydroxymethyl)tetrahydrofuran-3,4-diol]
[5]; [13]
  EC50: > 50 µM
[6]
  CC50 at 4 days: > 50 µM
[7]
  EC50: > 4.83 µM

— patent publication US12030903B2, “Antiviral compounds” (Gilead Sciences, Inc., priority 2020, dated 2024)
